One test addresses CPAF (Chlamydia trachomatis serovar D, UniProt O84866). The class given is biochemical.
In test [1] the test system is C. trachomatis LGV-L2 434-infected HeLa cells. The settings on record: C. trachomatis LGV-L2 434-infected HeLa cells treated with lactacystin; cited from earlier work.

Residues, ends and D or L forms follow the SMILES beside them.

Sequence of CPAF (O84866 276-601): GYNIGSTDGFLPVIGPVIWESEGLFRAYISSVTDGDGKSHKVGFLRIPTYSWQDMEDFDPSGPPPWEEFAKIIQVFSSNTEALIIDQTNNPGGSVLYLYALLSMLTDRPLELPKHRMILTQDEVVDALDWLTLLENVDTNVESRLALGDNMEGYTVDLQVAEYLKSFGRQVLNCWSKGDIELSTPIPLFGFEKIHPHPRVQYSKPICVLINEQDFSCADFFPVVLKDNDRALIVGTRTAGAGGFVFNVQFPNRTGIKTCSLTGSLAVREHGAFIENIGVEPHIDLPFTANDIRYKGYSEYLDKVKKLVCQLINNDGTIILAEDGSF
Sequence of CPAF (O84866 1-234): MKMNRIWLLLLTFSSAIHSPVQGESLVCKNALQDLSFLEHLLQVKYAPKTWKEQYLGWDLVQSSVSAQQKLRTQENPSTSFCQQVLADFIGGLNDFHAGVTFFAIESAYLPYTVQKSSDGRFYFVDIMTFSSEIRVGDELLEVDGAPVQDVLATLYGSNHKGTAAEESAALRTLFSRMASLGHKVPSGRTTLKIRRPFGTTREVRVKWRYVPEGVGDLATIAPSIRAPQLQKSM

As for `CSCC[C@H](NC(=O)[C@@H]1CCCN1C(=O)[C@H](CO)NC(=O)[C@H](Cc1ccc(O)cc1)NC(=O)[C@H](Cc1ccccc1)NC(=O)[C@H](CC(C)C)NC(=O)[C@@H](N)CO)C(=O)N[C@H](C(=O)N1CCC[C@H]1C(=O)N[C@@H](Cc1c[nH]cn1)C(=O)N[C@@H](Cc1ccccc1)C(=O)N[C@@H](Cc1c[nH]c2ccccc12)C(=O)N[C@@H](C)C(=O)N[C@@H](CCC(=O)O)C(=O)N[C@@H](CC(C)C)C(=O)N[C@@H](CCCNC(=N)N)C(=O)N[C@@H](CC(N)=O)C(=O)N[C@@H](Cc1c[nH]cn1)C(=O)N[C@@H](Cc1ccc(O)cc1)C(=O)N[C@@H](C)C(=O)N[C@H](C(=O)N[C@@H](CO)C(=O)NCC(=O)N[C@@H](CC(C)C)C(=O)N[C@@H](CCCCN)C(N)=O)[C@@H](C)O)C(C)C` [peptide 3] (H-SLFYSPMVPHFWAELRNHYATSGLK-NH2), at CPAF (ratio of CPAF IC50 values), the “potency relative to lactacystin (fold more potent)” value is given as 6 fold.
Regarding `CC(=O)N[C@@H](CSC(=O)[C@]1([C@@H](O)C(C)C)NC(=O)[C@H](C)[C@@H]1O)C(=O)O` [lactacystin], in test [1], the “effect on vimentin in infected HeLa cells” value was “fiber oligermerization of vimentin”.
Turning to `CSCC[C@H](NC(=O)[C@@H]1CCCN1C(=O)[C@H](CO)NC(=O)[C@H](Cc1ccc(O)cc1)NC(=O)[C@H](Cc1ccccc1)NC(=O)[C@H](CC(C)C)NC(=O)[C@@H](N)CO)C(=O)N[C@H](C(=O)N1CCC[C@H]1C(=O)N[C@@H](Cc1c[nH]cn1)C(=O)N[C@@H](Cc1ccccc1)C(=O)N[C@@H](Cc1c[nH]c2ccccc12)C(=O)N[C@@H](C)C(=O)N[C@@H](CCC(=O)O)C(=O)N[C@@H](CC(C)C)C(=O)N[C@@H](CCCNC(=N)N)C(=O)N[C@@H](CC(N)=O)C(=O)N[C@@H](Cc1c[nH]cn1)C(=O)N[C@@H](Cc1ccc(O)cc1)C(=O)N[C@@H](C)C(=O)N[C@H](C(=O)N[C@@H](CO)C(=O)NCC(=O)N[C@@H](CC(C)C)C(=O)N[C@@H](CCCCN)C(=O)N[C@@H](CCCNC(=N)N)C(=O)N[C@@H](CCCNC(=N)N)C(=O)N[C@@H](CCCNC(=N)N)C(=O)N[C@@H](CCCNC(=N)N)C(=O)N[C@@H](CCCNC(=N)N)C(=O)N[C@@H](CCCNC(=N)N)C(=O)N[C@@H](CCCNC(=N)N)C(=O)N[C@@H](CCCNC(=N)N)C(=O)N[C@@H](CCCNC(=N)N)C(N)=O)[C@@H](C)O)C(C)C` [peptide 4] (H-SLFYSPMVPHFWAELRNHYATSGLKRRRRRRRRR-NH2), on CPAF (ratio of CPAF IC50 values), the “potency relative to inhibitor 3 (fold better)” value is given as about 30 fold and the “potency relative to lactacystin (fold more potent)” value was about 200 fold.
As to “H-NFALSHFRLPLSTYKEMPYVSHWAGRRRRRRRRR-NH2 [peptide 5]”, the “CPAF inhibitory activity in vitro” value on CPAF (in vitro) is on record as “no CPAF inhibitory activity”.
